# In patent publication US20250197399A1, “COMPOUNDS, COMPOSITIONS, AND METHODS” (Tenvie Therapeutics, Inc., priority 2022, published 2025):
# Like-named read-outs stand apart in the source and are kept apart here.
# System: NLRP3
# Assay: IL-1β secretion assay in PMA-differentiated, LPS/nigericin-stimulated THP-1 cells (ELISA)
# Assay type: cell-based
# Settings: 25 ng/mL LPS then nigericin, IL-1β in supernatant
# Procedure: Compounds as provided herein were tested in the following assay. Cell culture medium employed contained RPMI 1640 medium (89%), FBS (10%), Pen/Strep (1%), and 2-mercaptoethanol (0.05 mM). Freezing medium was made up of 90% FBS and 10% DMSO. THP-1 cells were removed from the liquid nitrogen and placed into a 37° C. water bath to thaw, until signs of ice dissipated. The cells were then added to 9 mL of warm cell culture medium and centrifuged for 5 minutes at 1000 rpm. The supernatant was discarded, and the cells were resuspended in new cell culture medium. THP-1 cells were then split and cultured in the cell culture medium, being passaged every 2-3 days with the cell density will be maintained between 5×10^5 and 1.5×10^6 viable cells/mL.
# PMA was dissolved in DMSO to make a stock solution at 5 mg/ml and stored in 10 μl aliquots at −20° C. for single use. PMA is added to normal growth medium. LPS was diluted with 1 mL of water solution to provide a 1 mg/mL stock solution and stored in 15 μL aliquots at −20° C. for single use. Nigericin is diluted in ice cold 100% ethanol to 5 mg/ml (6.7 mM) and stored in 75 μL aliquots at −20° C. for single use. Serum-free media contains RPMI 1640 medium (99%), Pen/Strep (1%), and 2-mercaptoethanol (0.05 mM). The two control conditions used to qualify and normalize test compound dose-response curves were as follows: High Control=25 ng/mL LPS, […], 0.5% DMSO, Low Control=25 ng/mL, LPS, 0.5% DMSO.
# THP-1 cells were diluted to provide a suspension at a concentration of 1.0×10^6 cells/mL with the total volume of suspension required to enable the desired number of assay plates. The growth media was supplemented with PMA (5 ng/mL final concentration) and the cells were incubated at 37° C. under a humidified atmosphere of 5% CO2 for 40 h.
# All media was carefully aspirated from each culture flask. The cells were washed carefully with 1×DPBS. The cells were then briefly digested with trypsin LE for 5 minutes at 23° C. and immediately resuspended in cell growth media. After resuspension, the cells were centrifuged at 1000 rpm for 3 minutes and the supernatant was discarded. The cells were resuspended in DPBS and once again centrifuged at 1000 rpm for 5 minutes. The supernatant was discarded and the cell pellet was resuspended in serum-free media supplemented with LPS (25 ng/mL final concentration) to enable the distribution of 30K THP-1 cells within 45 μL of media into each well of 384-well PDL-coated plates. The 384-well plates were then incubated at 37° C. under a humidified atmosphere of 5% CO2 for 2 h. Following this period, test compounds were dispensed by Tecan across the desired concentration range with all wells normalized to a final 0.5% DMSO concentration. The plates were then then incubated at 37° C. under a humidified atmosphere of 5% CO2 for 1 h. Following this period, 5 μL of the 5 mg/mL nigericin stock solution was added to each of the appropriate wells and plates were centrifuged at 1000 rpm for 30 seconds. The plates were the immediately reintroduced to the incubator at 37° C. under a humidified atmosphere of 5% CO2 for 2 h. After this time, 35 μL/well of supernatant was collected and transferred into v-bottom plate and centrifuged at 1000 rpm for 1 minute. These supernatant aliquots were analyzed using an IL-Iβ detection kit as described below. If needed, the test samples could be snap frozen and stored at −80° C. until analyzed.
# To prepare each ELISA plate, capture antibody (mAb Mt175) was diluted with PBS to a final concentration of […] and then 20 μL of this solution was added to each well of the ELISA plate. Each plate was allowed to incubate overnight at 4° C. The next day, the capture antibody solution was removed and discarded. Each ELISA plate was washed 4 times with PBST followed by the addition of 25 µL/well of blocking buffer (Licor-927-40010) supplemented with 0.1% Tween 20. Each ELISA plate was then allowed to incubate for 1 hour at 23° C. […]
# [1] = THP-1 cells, read-out: Activity
# [2] = THP-1 cells, read-out: Activity (IC50 class)
# [3] = Homo sapiens, THP-1, THP-1 cells, read-out: Activity
# [4] = Homo sapiens, THP-1, THP-1 cells, read-out: Activity (IC50 class)
SMILES,IC50 [1],IC50 [2],IC50 [3],IC50 [4]
"C[C@]1(O)C[C@@H](NC(=O)CN2CC3(CC3(F)F)c3cc(C(F)(F)F)ccc3C2=O)C1 (single isomer, unassigned) [Example 52, 2-[1′,1′-difluoro-1-oxo-6-(trifluoromethyl)spiro[3H-isoquinoline-4,2′-cyclopropane]-2-yl]-N-(3-cis-hydroxy-3-methylcyclobutyl)acetamide]",22400 nM,> 10000 nM,,
"Cc1cnc(NC(=O)CN2CC3(CC3(F)F)c3cc(C4(F)CC4)ccc3C2=O)nc1 (single isomer, unassigned) [Example 25, N-(5-methylpyrimidin-2-yl)-2-[1′,1′-difluoro-6-(1-fluorocyclopropyl)-1-oxospiro[3H-isoquinoline-4,2′-cyclopropane]-2-yl]acetamide]",61 nM,< 1000 nM,,
"O=C(CN1CC2(CC2(F)F)c2c(ccc(C(F)(F)F)c2F)C1=O)Nc1ncc(Cl)cn1 (single isomer, unassigned) [Example 15, N-(5-chloropyrimidin-2-yl)-2-[1′,1′,5-trifluoro-6-(trifluoromethyl)-1-oxospiro[3H-isoquinoline-4,2′-cyclopropane]-2-yl]acetamide]",63 nM,< 1000 nM,,
"C[C@]1(O)C[C@@H](NC(=O)CN2C[C@]3(C[C@H]3F)c3cc(C4(F)CC4)ccc3C2=O)C1 [Example 4, N-(3-cis-hydroxy-3-methylcyclobutyl)-2-[(2′R,4S)-2′-fluoro-6-(1-fluorocyclopropyl)-1-oxospiro[3H-isoquinoline-4,1′-cyclopropane]-2-yl]acetamide]",,,16 nM,< 1000 nM
"COC(=O)C12CC(NC(=O)CN3CC4(CC4)c4cc(Br)ccc4C3=O)(C1)C2 [Example 60, methyl 3-[[2-(6-bromo-1-oxospiro[3H-isoquinoline-4,1′-cyclopropane]-2-yl)acetyl]amino]bicyclo[1.1.1]pentane-1-carboxylate]",,,216 nM,< 1000 nM
"Cc1cnc(NC(=O)CN2CC3(CC3(F)F)c3c(ccc(C4CC4)c3F)C2=O)nc1 (single isomer, unassigned) [Example 37, N-(5-methylpyrimidin-2-yl)-2-[6-cyclopropyl-1′,1′,5-trifluoro-1-oxospiro[3H-isoquinoline-4,2′-cyclopropane]-2-yl]acetamide]",78 nM,< 1000 nM,,
"O=C(CN1C[C@]2(C[C@H]2F)c2cc(C(F)(F)F)ccc2C1=O)Nc1ncc2cn[nH]c2n1 (single isomer, unassigned) [Example 47, 2-[(2′s,4r)-2′-fluoro-1-oxo-6-(trifluoromethyl)spiro[3H-isoquinoline-4,1′-cyclopropane]-2-yl]-N-(1H-pyrazolo[3,4-d]pyrimidin-6-yl)acetamide]",231 nM,,,< 1000 nM
"O=C(CN1CC2(CC2(F)F)c2c(ccc(Br)c2F)C1=O)Nc1nc2ccccn2n1 (single isomer, unassigned) [Example 31, N-([1,2,4]triazolo[1,5-a]pyridin-2-yl)-2-[6-bromo-1′,1′,5-trifluoro-1-oxospiro[3H-isoquinoline-4,2′-cyclopropane]-2-yl]acetamide]",33 nM,< 1000 nM,,
"O=C(CN1CC2(CC2(F)F)c2cc(Br)ccc2C1=O)Nc1ncc2cn[nH]c2n1 (centres unmarked) [Example 63, 2-(6-bromo-1′,1′-difluoro-1-oxospiro[3H-isoquinoline-4,2′-cyclopropane]-2-yl)-N-(1H-pyrazolo[3,4-d]pyrimidin-6-yl)acetamide]",,,34 nM,< 1000 nM
"O=C(CN1C[C@@]2(C[C@@H]2F)c2c(ccc(C(F)(F)F)c2F)C1=O)Nc1ncc(Cl)cn1 (single isomer, unassigned) [Example 13, 2-[(2′s,4r)-2′,5-difluoro-1-oxo-6-(trifluoromethyl)spiro[3H-isoquinoline-4,1′-cyclopropane]-2-yl]-N-(5-chloropyrimidin-2-yl)acetamide]",232 nM,< 1000 nM,,
"O=C(CN1CC2(CC2)c2cc(Br)ccc2C1=O)NC1CC(O)(C2CC2)C1 (single isomer, unassigned) [Example 56, 2-(6-bromo-1-oxospiro[3H-isoquinoline-4,1′-cyclopropane]-2-yl)-N-(3-cyclopropyl-3-hydroxycyclobutyl)acetamide]",363 nM,< 1000 nM,,
"O=C(CN1C[C@]2(C[C@H]2F)c2cc(C(F)(F)F)ccc2C1=O)Nc1ncc2cn[nH]c2n1 (single isomer, unassigned) [Example 48, 2-[(2′s,4r)-2′-fluoro-1-oxo-6-(trifluoromethyl)spiro[3H-isoquinoline-4,1′-cyclopropane]-2-yl]-N-(1H-pyrazolo[3,4-d]pyrimidin-6-yl)acetamide]",24 nM,< 1000 nM,,
"C[C@]1(O)C[C@@H](NC(=O)CN2C[C@]3(C[C@H]3F)c3c(ccc(C4CC4)c3F)C2=O)C1 [Example 6, N-(3-cis-hydroxy-3-methylcyclobutyl)-2-[(2′s,4r)-2′,5-difluoro-6-cyclopropyl-1-oxospiro[3H-isoquinoline-4,1′-cyclopropane]-2-yl]acetamide]",,,72 nM,< 1000 nM
"O=C(CN1CC2(CC2(F)F)c2cc(Br)ccc2C1=O)Nc1ncc2cn[nH]c2n1 (single isomer, unassigned) [Example 64, 2-(6-bromo-1′,1′-difluoro-1-oxospiro[3H-isoquinoline-4,2′-cyclopropane]-2-yl)-N-(1H-pyrazolo[3,4-d]pyrimidin-6-yl)acetamide]",8 nM,,,< 1000 nM
"O=C(CN1CC2(CC2)c2c(ccc(Br)c2F)C1=O)Nc1ccc2nn[nH]c2c1 [Example 61, N-(3H-benzotriazol-5-yl)-2-(6-bromo-5-fluoro-1-oxospiro[3H-isoquinoline-4,1′-cyclopropane]-2-yl)acetamide]",,,162 nM,< 1000 nM
"O=C(CN1C[C@]2(C[C@H]2F)c2c(ccc(Cl)c2F)C1=O)Nc1ncc2cn[nH]c2n1 (single isomer, unassigned) [Example 45, 2-[(2′s,4r)-6-chloro-2′,5-difluoro-1-oxospiro[3H-isoquinoline-4,1′-cyclopropane]-2-yl]-N-(1H-pyrazolo[3,4-d]pyrimidin-6-yl)acetamide]",,,48 nM,< 1000 nM
"O=C(CN1CC2(CC2)c2cc(Br)ccc2C1=O)Nc1ncc2cn[nH]c2n1 [Example 42, 2-(6-bromo-1-oxo-spiro[3H-isoquinoline-4,1′-cyclopropane]-2-yl)-N-(1H-pyrazolo[3,4-d]pyrimidin-6-yl)acetamide]",,,61 nM,< 1000 nM
"Cc1cnc(NC(=O)CN2CC3(CC3(F)F)c3c(ccc(C4CC4)c3F)C2=O)nc1 (single isomer, unassigned) [Example 36, N-(5-methylpyrimidin-2-yl)-2-[6-cyclopropyl-1′,1′,5-trifluoro-1-oxospiro[3H-isoquinoline-4,2′-cyclopropane]-2-yl]acetamide]",22400 nM,> 10000 nM,,
"O=C(CN1CC2(CC2(F)F)c2cc(C3(F)CC3)ccc2C1=O)Nc1ncc(F)cn1 (single isomer, unassigned) [Example 27, N-(5-fluoropyrimidin-2-yl)-2-[1′,1′-difluoro-6-(1-fluorocyclopropyl)-1-oxospiro[3H-isoquinoline-4,2′-cyclopropane]-2-yl]acetamide]",128 nM,< 1000 nM,,
